Results taken from patent US20250161216A1, “CATIONIC LIPID ANALOGUES, COMPOSITIONS AND USES THEREOF” (GUANGZHOU LIDE BIOMEDICINE TECHNOLOGY CO., LTD., priority 2022, published 2025).

What was measured:
C57BL/6 mice [1] = experiment: In vivo expression level of Luciferase-mRNA delivered by intravenous injection (bioluminescence imaging); settings: mRNA-loaded nanoparticles, intravenous (tail vein), 5 μg Luciferase-mRNA, 6 hours; for Fluorescence intensity of liver: compounds of Example 1
Protocol: (§1) Luciferase-mRNA was used as an mRNA model; and the cationic lipid analogues of Examples 1-5 were used to prepare drug-loaded nanoparticles according to the method of Example 6.
200 μL of nanoparticles containing 5 μg Luciferase-mRNA or the drug-loaded nanoparticles prepared above were injected into tail veins of 6-8 week-old C57BL/6 mice, and 200 μL of 1×PBS solution containing 3 mg D-Luciferin potassium salt was intraperitoneally injected into the mice 6 hours later. After waiting for 10 minutes, an in vivo expression level of the mRNA was evaluated by bioluminescence imaging.

C57BL/6 mice [2] = experiment: In vivo expression level of Luciferase-mRNA delivered by intramuscular injection (bioluminescence imaging); settings: mRNA-loaded nanoparticles, intramuscular (leg muscle), 5 μg Luciferase-mRNA, 6 hours
Protocol: as §1
100 μL of nanoparticles containing 5 μg Luciferase-mRNA or the drug-loaded nanoparticles prepared above were injected into the leg muscles of 6-8 week-old C57BL/6 mice, and 200 μL of 1×PBS solution containing 3 mg D-Luciferin potassium salt was intraperitoneally injected into the mice 6 hours later. After waiting for 10 minutes, an in vivo expression level of the mRNA was evaluated by bioluminescence imaging.

| Compound | Local fluorescence intensity (C57BL/6 mice [2]; compounds of Example 2) | Fluorescence intensity of liver (C57BL/6 mice [1]) | other results |
| --- | --- | --- | --- |
| CCCCCCCC/C=C\CCCCCCCC(=O)N(CCC)C(C(=O)NCCN(C)CCNC(=O)C(C(C)C)N(CCC)C(=O)CCCCCCC/C=C\CCCCCCCC)C(C)C (stereo not drawn) [A1I4R21C18-1] | 2.26E+07 | – | Fluorescence intensity of spleen (C57BL/6 mice [1]; compounds of Example 2): 2.76E+05 |
| CCCCC/C=C\C/C=C\CCCCCCCC(=O)N(CCC)C(C(=O)NCCN(C)CCNC(=O)C(C(C)C)N(CCC)C(=O)CCCCCCC/C=C\C/C=C\CCCCC)C(C)C (stereo not drawn) [A1I4R21C18-2] | 3.17E+05 | – | Fluorescence intensity of spleen (C57BL/6 mice [1]; compounds of Example 2): 6.62E+05 |
| CCCCCCCC/C=C\CCCCCCCC(=O)N(CCO)C(C(=O)NCCN(C)CCNC(=O)C(C(C)C)N(CCO)C(=O)CCCCCCC/C=C\CCCCCCCC)C(C)C (stereo not drawn) [A1I4R22C18-1] | 2.86E+04 | – | Fluorescence intensity of spleen (C57BL/6 mice [1]; compounds of Example 2): 3.18E+05 |
| CCCCCCCC/C=C\CCCCCCCC(=O)N(CCOC)C(C(=O)NCCN(C)CCNC(=O)C(C(C)C)N(CCOC)C(=O)CCCCCCC/C=C\CCCCCCCC)C(C)C (stereo not drawn) [A1I4R23C18-1] | 1.77E+05 | – | Fluorescence intensity of spleen (C57BL/6 mice [1]; compounds of Example 2): 3.11E+05 |
| CCCCC/C=C\C/C=C\CCCCCCCC(=O)N(CCOC)C(C(=O)NCCN(C)CCNC(=O)C(C(C)C)N(CCOC)C(=O)CCCCCCC/C=C\C/C=C\CCCCC)C(C)C (stereo not drawn) [A1I4R23C18-2] | 8.72E+05 | – | Fluorescence intensity of spleen (C57BL/6 mice [1]; compounds of Example 2): 9.64E+05 |
| CCCCCCCCCCCCCCCCCC(=O)N(CCOC)C(C(=O)NCCN(C)CCNC(=O)C(C(C)C)N(CCOC)C(=O)CCCCCCCCCCCCCCCCC)C(C)C (stereo not drawn) [A1I4R23C18] | 7.53E+04 | – | Fluorescence intensity of spleen (C57BL/6 mice [1]; compounds of Example 2): 1.51E+05 |
| CCCCC/C=C\C/C=C\CCCCCCCC(=O)N(CCCCCO)C(C(=O)NCCN(C)CCNC(=O)C(C(C)C)N(CCCCCO)C(=O)CCCCCCC/C=C\C/C=C\CCCCC)C(C)C (stereo not drawn) [A1I4R27C18-2] | 1.67E+04 | – | – |
| CCCCC/C=C\C/C=C\CCCCCCCC(=O)N(CCCCCCO)C(C(=O)NCCN(C)CCNC(=O)C(C(C)C)N(CCCCCCO)C(=O)CCCCCCC/C=C\C/C=C\CCCCC)C(C)C (stereo not drawn) [A1I4R28C18-2] | 1.72E+06 | – | – |
| CCCC/C=C\C/C=C\CCCCCCCC(=O)N(C(C(=O)NCCN(C)CCNC(=O)C(C(C)C)N(C(=O)CCCCCCC/C=C\C/C=C\CCCCC)C(C)(CO)CO)C(C)C)C(C)(CO)CO (stereo not drawn) [A1I4R29C18-2] | 2.99E+04 | – | – |
| CCCCC/C=C\C/C=C\CCCCCCCC(=O)N(C(C(=O)NCCN(C)CCNC(=O)C(C(C)C)N(C(=O)CCCCCCC/C=C\C/C=C\CCCCC)C(CO)(CO)CO)C(C)C)C(O)(CO)CO (stereo not drawn) [A1I4R30C18-2] | 2.05E+04 | – | – |
| CCCCC/C=C\C/C=C\CCCCCCCC(=O)N(CCCOCC)C(C(=O)NCCN(C)CCNC(=O)C(C(C)C)N(CCCOCC)C(=O)CCCCCCC/C=C\C/C=C\CCCCC)C(C)C (stereo not drawn) [A1I4R31C18-2] | 5.21E+04 | – | – |
| CCCCC/C=C\C/C=C\CCCCCCCC(=O)N(CCCOC(C)C)C(C(=O)NCCN(C)CCNC(=O)C(C(C)C)N(CCCOC(C)C)C(=O)CCCCCCC/C=C\C/C=C\CCCCC)C(C)C (stereo not drawn) [A1I4R32C18-2] | 2.57E+04 | – | – |
| CCCC/C=C\C/C=C\CCCCCCCC(=O)N(C(CC)COC)C(C(=O)NCCN(C)CCNC(=O)C(C(C)C)N(C(=O)CCCCCCC/C=C\C/C=C\CCCCC)C(CC)COC)C(C)C (stereo not drawn) [A1I4R33C18-2] | 1.02E+05 | – | – |
| CCCC/C=C\C/C=C\CCCCCCCC(=O)N(CC(OC)OC)C(C(=O)NCCN(C)CCNC(=O)C(C(C)C)N(CC(OC)OC)C(=O)CCCCCCC/C=C\C/C=C\CCCCC)C(C)C (stereo not drawn) [A1I4R34C18-2] | 5.58E+05 | – | – |
| CCCC/C=C\C/C=C\CCCCCCCC(=O)N(CC1CCCO1)C(C(=O)NCCN(C)CCNC(=O)C(C(C)C)N(CC1CCCO1)C(=O)CCCCCCC/C=C\C/C=C\CCCCC)C(C)C (stereo not drawn) [A1I4R35C18-2] | 3.38E+05 | – | – |
| CCCC/C=C\C/C=C\CCCCCCCC(=O)N(CCOCCO)C(C(=O)NCCN(C)CCNC(=O)C(C(C)C)N(CCOCCO)C(=O)CCCCCCC/C=C\C/C=C\CCCCC)C(C)C (stereo not drawn) [A1I4R36C18-2] | 5.68E+04 | – | – |
| CCCC/C=C\C/C=C\CCCCCCCC(=O)N(CCCO)C(C(=O)NCCN(C)CCNC(=O)C(C(C)C)N(CCCO)C(=O)CCCCCCC/C=C\C/C=C\CCCCC)C(C)C (stereo not drawn) [A1I4R42C18-2] | 7.04E+04 | – | – |

| Compound | Local fluorescence intensity (C57BL/6 mice [2]; compounds of Example 2) | Fluorescence intensity of liver (C57BL/6 mice [1]) | other results |
| --- | --- | --- | --- |
| CCCC/C=C\C/C=C\CCCCCCCC(=O)N(CCCOC)C(C(=O)NCCN(C)CCNC(=O)C(C(C)C)N(CCCOC)C(=O)CCCCCCC/C=C\C/C=C\CCCCC)C(C)C (stereo not drawn) [A1I4R43C18-2] | 6.57E+04 | – | – |
| CCCCC/C=C\C/C=C\CCCCCCCC(=O)N(CC1CCOCC1)C(C(=O)NCCN(C)CCNC(=O)C(C(C)C)N(CC1CCOCC1)C(=O)CCCCCCC/C=C\C/C=C\CCCCC)C(C)C (stereo not drawn) [A1I4R48C18-2] | 8.55E+04 | – | – |
| CCCCCCCCCCCCCC(=O)N(CCO)C(C(=O)NCCN(CCNC(=O)C(C(C)C)N(CCO)C(=O)CCCCCCCCCCCCC)CCNC(=O)C(C(C)C)N(CCO)C(=O)CCCCCCCCCCCCC)C(C)C (stereo not drawn) [A1I5R22C14] | – | – | Fluorescence intensity of spleen (C57BL/6 mice [1]; compounds of Example 3): 1.20E+06; Local fluorescence intensity (C57BL/6 mice [2]; compounds of Example 3): 1.08E+05 |
| CCCCCCCCSSCCC(=O)N(CCO)C(C(=O)NCCN(CCNC(=O)C(C(C)C)N(CCO)C(=O)CCSSCCCCCCCC)CCNC(=O)C(C(C)C)N(CCO)C(=O)CCSSCCCCCCCC)C(C)C (stereo not drawn) [A1I5R22S13] | – | – | Fluorescence intensity of spleen (C57BL/6 mice [1]; compounds of Example 3): 1.60E+06; Local fluorescence intensity (C57BL/6 mice [2]; compounds of Example 3): 5.74E+05 |
| CCCCCCCCCCSSCCC(=O)N(C1CCCCCC1)C(C(=O)NCCN(CCNC(=O)C(C(C)C)N(C(=O)CCSSCCCCCCCCCC)C1CCCCCC1)CCNC(=O)C(C(C)C)N(C(=O)CCSSCCCCCCCCCC)C1CCCCCC1)C(C)C (stereo not drawn) [A1I5R26S15] | – | – | Fluorescence intensity of spleen (C57BL/6 mice [1]; compounds of Example 3): 1.30E+05; Local fluorescence intensity (C57BL/6 mice [2]; compounds of Example 3): 9.90E+05 |
| CC/C=C\C/C=C\C/C=C\CCCCCCCC(=O)N(CCN(C)C)C(C(=O)NCCCCCCCCCCCCCCCCCC)C1CCCCC1 (stereo not drawn) [A23I18R1C18-3] | – | 4.14E+06 | – |
| CCCCCCCCCCCCCCCCCCNC(=O)C(C1CCCCC1)N(CCN(C)C)C(=O)CCCCCCCCCCCCCCCCC (stereo not drawn) [A23I18R1C18] | – | 9.09E+04 | – |
| CCCCCCCCCCCCC#CC#CCCCCCCCCC(=O)N(CCN(C)C)C(C(=O)NCCCCCCCCCCCCCCCCCC)C1CCCCC1 (stereo not drawn) [A23I18R1C23] | – | 6.11E+06 | – |
| CCCCCCCC/C=C\CCCCCCCC(=O)N(CCCN(C)C)C(C(=O)NCCCCCCCCCCCCCCCCCC)C1CCCCC1 (stereo not drawn) [A23I18R2C18-1] | – | 1.29E+06 | – |
| CC/C=C\C/C=C\C/C=C\CCCCCCCC(=O)N(CCCN(C)C)C(C(=O)NCCCCCCCCCCCCCCCCCC)C1CCCCC1 (stereo not drawn) [A23I18R2C18-3] | – | 9.49E+05 | – |
| CCCCCCCCCCCCC#CC#CCCCCCCCCC(=O)N(CCCN(C)C)C(C(=O)NCCCCCCCCCCCCCCCCCC)C1CCCCC1 (stereo not drawn) [A23I18R2C23] | – | 2.37E+06 | – |
| CCCCCCCC/C=C\CCCCCCCC(=O)N(CCCN(CC)CC)C(C(=O)NCCCCCCCCCCCCCCCCCC)C1CCCCC1 (stereo not drawn) [A23I18R3C18-1] | – | 1.26E+06 | – |
| CCCCC/C=C\C/C=C\CCCCCCCC(=O)N(CCCN(CC)CC)C(C(=O)NCCCCCCCCCCCCCCCCCC)C1CCCCC1 (stereo not drawn) [A23I18R3C18-2] | – | 4.86E+06 | – |
| CC/C=C\C/C=C\C/C=C\CCCCCCCC(=O)N(CCCN(CC)CC)C(C(=O)NCCCCCCCCCCCCCCCCCC)C1CCCCC1 (stereo not drawn) [A23I18R3C18-3] | – | 1.13E+06 | – |
| CCCCCCCCCCCCCCCCCCNC(=O)C(C1CCCCC1)N(CCCN(CC)CC)C(=O)CCCCCCCCCCCCCCCCC (stereo not drawn) [A23I18R3C18] | – | 2.14E+03 | – |
| CCCCCCCCCCCCC#CC#CCCCCCCCCC(=O)N(CCCN(CC)CC)C(C(=O)NCCCCCCCCCCCCCCCCCC)C1CCCCC1 (stereo not drawn) [A23I18R3C23] | – | 7.89E+05 | – |
